PubChem BioAssay (NCI)
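Following 48 hours of exposure in 96-well plates, responses at five concentrations were used to interpolate endpoints linearly. At the GI50, growth is halved. TGI marks complete inhibition of growth.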

Key:
Assay in all cases: NCI tumour cell line growth inhibition, 48 h; in the data active = GI50 below about 0.43 µM; inactive = the rest
OVCAR-3 ovarian = system: OVCAR-3 ovarian
MDA-MB-231 breast = system: MDA-MB-231 breast
COLO 205 colon = system: COLO 205 colon
NCI-H522 lung = system: NCI-H522 lung
HCT-15 colon = system: HCT-15 colon
HS 578T breast = system: HS 578T breast
HOP-62 NSCLC = system: HOP-62 NSCLC
RXF 393 renal = system: RXF 393 renal
M14 melanoma = system: M14 melanoma
SNB-75 CNS = system: SNB-75 CNS

O=C1NC(=S)N/C1=C/c1ccccc1O
> 100 µM: TGI (OVCAR-3 ovarian) | TGI (MDA-MB-231 breast) | TGI (COLO 205 colon) | TGI (NCI-H522 lung) | TGI (HCT-15 colon) | TGI (HS 578T breast) | TGI (HOP-62 NSCLC) | TGI (RXF 393 renal) | TGI (M14 melanoma)

CC1(C)O[C@@H](CO)[C@H]([C@@]23OC[C@H]4OC(C)(C)OC4[C@@H]2OC(C)(C)O3)O1 (stereo partly specified)
> 100 µM: TGI (OVCAR-3 ovarian) | TGI (MDA-MB-231 breast) | TGI (COLO 205 colon) | TGI (NCI-H522 lung) | TGI (SNB-75 CNS) | TGI (HCT-15 colon) | TGI (HS 578T breast) | TGI (HOP-62 NSCLC) | TGI (RXF 393 renal) | TGI (M14 melanoma)

CC1(C)COC(c2cccc(C3=NC(C)(C)CO3)c2Br)=N1
> 100 µM: TGI (MDA-MB-231 breast) | TGI (COLO 205 colon) | TGI (SNB-75 CNS) | TGI (HCT-15 colon) | TGI (HOP-62 NSCLC) | TGI (RXF 393 renal) | TGI (M14 melanoma)

CC1(O)C=CC2CCC1C2O (stereo unspecified)
75.7 µM: TGI (COLO 205 colon)
> 100 µM: TGI (OVCAR-3 ovarian) | TGI (NCI-H522 lung) | TGI (SNB-75 CNS) | TGI (HCT-15 colon) | TGI (HOP-62 NSCLC) | TGI (RXF 393 renal) | TGI (M14 melanoma)

C/C(=N\NC(N)=O)C(CN1CCCCC1)C(c1ccccc1)c1c(O)c2ccccc2oc1=O (stereo unspecified)
> 100 µM: TGI (OVCAR-3 ovarian) | TGI (MDA-MB-231 breast) | TGI (COLO 205 colon) | TGI (NCI-H522 lung) | TGI (SNB-75 CNS) | TGI (HCT-15 colon) | TGI (HS 578T breast) | TGI (HOP-62 NSCLC) | TGI (RXF 393 renal) | TGI (M14 melanoma)
inactive: GI50 (MDA-MB-231 breast) > 100 µM | GI50 (HS 578T breast) 79.4 µM

C#CCNC(Cc1cnc[nH]1)C(=O)O (stereo unspecified)
> 100 µM: TGI (OVCAR-3 ovarian) | TGI (MDA-MB-231 breast) | TGI (COLO 205 colon) | TGI (NCI-H522 lung) | TGI (SNB-75 CNS) | TGI (HCT-15 colon) | TGI (HS 578T breast) | TGI (HOP-62 NSCLC) | TGI (RXF 393 renal) | TGI (M14 melanoma)

S=C(N/N=C\C=N/NC(=S)N1CCCCCC1)N1CCCCCC1
> 100 µM: TGI (OVCAR-3 ovarian) | TGI (MDA-MB-231 breast) | TGI (COLO 205 colon) | TGI (NCI-H522 lung) | TGI (SNB-75 CNS) | TGI (HCT-15 colon) | TGI (HS 578T breast) | TGI (M14 melanoma)
> 60.9 µM: TGI (HOP-62 NSCLC)
90.9 µM: TGI (RXF 393 renal)

Nc1nc(Cl)cc(N=Nc2ccccc2)n1
97.2 µM: TGI (RXF 393 renal)
> 100 µM: TGI (MDA-MB-231 breast) | TGI (COLO 205 colon) | TGI (NCI-H522 lung) | TGI (SNB-75 CNS) | TGI (HS 578T breast) | TGI (M14 melanoma)
30.3 µM: TGI (OVCAR-3 ovarian)
60.1 µM: TGI (HOP-62 NSCLC)
35 µM: TGI (HCT-15 colon)

O=C1/C(=C/c2ccccc2)CCc2ccc(Cl)nc21
46.9 µM: TGI (OVCAR-3 ovarian)
11.4 µM: TGI (HCT-15 colon)
47.5 µM: TGI (SNB-75 CNS)
40.5 µM: TGI (COLO 205 colon)
42 µM: TGI (HOP-62 NSCLC)
24.8 µM: TGI (RXF 393 renal)
40.6 µM: TGI (MDA-MB-231 breast)
10.4 µM: TGI (NCI-H522 lung)
23.6 µM: TGI (M14 melanoma)

COc1ccc(C(O)c2ccc3c(c2)OCO3)cc1 (stereo unspecified)
> 100 µM: TGI (OVCAR-3 ovarian) | TGI (MDA-MB-231 breast) | TGI (COLO 205 colon) | TGI (NCI-H522 lung) | TGI (SNB-75 CNS) | TGI (HCT-15 colon) | TGI (HOP-62 NSCLC) | TGI (RXF 393 renal) | TGI (M14 melanoma)

NC(Cc1cc(I)c(O)c(I)c1)C(=O)O (stereo unspecified)
> 362 µM: TGI (HCT-15 colon)
130 µM: TGI (NCI-H522 lung)
> 330 µM: TGI (SNB-75 CNS)
> 500 µM: TGI (OVCAR-3 ovarian) | TGI (COLO 205 colon) | TGI (HOP-62 NSCLC)
449 µM: TGI (RXF 393 renal)
